In patent publication US20230192657A1, “1,2,4-TRIAZOLINONE CB1 INHIBITORS” (Goldfinch Bio, Inc., priority 2020, published 2023):

Molecular target: CB1 receptor (Homo sapiens, UniProt P21554)
Assay: CB1 cAMP Antagonist Assay (LANCE Ultra cAMP kit)
Format: cell-based
Conditions: Flp-In CHO cells stably expressing the CB1 receptor; forskolin and CP55940 agonist at EC90; cAMP FRET readout

CB1 receptor, sequence (P21554 whole entry): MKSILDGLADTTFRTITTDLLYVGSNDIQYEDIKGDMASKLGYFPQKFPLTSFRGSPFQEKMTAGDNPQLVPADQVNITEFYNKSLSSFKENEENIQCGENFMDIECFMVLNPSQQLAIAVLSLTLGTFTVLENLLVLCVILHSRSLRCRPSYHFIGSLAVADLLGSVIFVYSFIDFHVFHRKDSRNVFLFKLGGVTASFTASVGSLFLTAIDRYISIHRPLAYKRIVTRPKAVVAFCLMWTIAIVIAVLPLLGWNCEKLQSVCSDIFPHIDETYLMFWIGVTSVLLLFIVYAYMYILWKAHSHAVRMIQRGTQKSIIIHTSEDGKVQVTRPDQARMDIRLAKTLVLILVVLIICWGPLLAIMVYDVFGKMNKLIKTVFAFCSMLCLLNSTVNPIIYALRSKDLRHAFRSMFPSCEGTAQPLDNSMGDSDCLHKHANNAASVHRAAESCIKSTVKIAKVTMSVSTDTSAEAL

Structure (SMILES) | IC50
C[C@H](C(N)=O)n1c(N2C[C@@H](c3ccccc3)C(c3ccc(Cl)cc3)=N2)nn(Cc2ccc(Cl)cn2)c1=O [Compound 213] | > 5000 nM
Cc1ccc(Cn2nc(N3CC(c4ccccc4)C(c4ccc(Cl)cc4)=N3)n(C)c2=O)cn1 (centres unmarked) [Compound 183] | 100 to 1000 nM
Cc1ccc(Cn2nc(N3C[C@@H](c4ccccc4)C(c4ccc(Cl)cc4)=N3)n(C)c2=O)cc1 [Compound 161] | 1000 to 5000 nM
Cn1c(N2C[C@H](c3ccccc3)C(c3ccc(Cl)cc3)=N2)nn(CCc2ccc(C(N)=O)cc2)c1=O [Compound 202, 4-(2-[3-[(4S)-3-(4-chlorophenyl)-4-phenyl-4,5-dihydropyrazol-1-yl]-4-methyl-5-oxo-1,2,4-triazol-1-yl]ethyl)benzamide] | 100 to 1000 nM
NC(=O)CCn1c(N2CC3(CCc4ccccc43)C(c3ccc(Cl)cc3)=N2)nn(Cc2ccc(Cl)cc2)c1=O (stereo in doubt) [Compound 133, 3-[3-[(1S)-3-(4-chlorophenyl)-1,2,3,5-tetrahydrospiro[indene-1,4-pyrazol]-1-yl]-1-[(4-chlorophenyl)methyl]-5-oxo-4,5-dihydro-1H-1,2,4-triazol-4-yl]propanamide] | 1000 to 5000 nM
NC(=O)CCn1c(N2C[C@]3(CCc4ccccc43)C(c3ccc(Cl)cc3)=N2)nn(-c2ccc(Cl)cc2)c1=O [Compound 126, 3-[1-(4-chlorophenyl)-3-[(1R)-3-(4-chlorophenyl)-1,2,3,5-tetrahydrospiro[indene-1,4-pyrazol]-1-yl]-5-oxo-4,5-dihydro-1H-1,2,4-triazol-4-yl]propanamide] | 100 to 1000 nM
NC(=O)Cn1c(N2C[C@@H](c3ccccc3)C(c3ccc(Cl)cc3)=N2)nn(Cc2ccc(Cl)cc2)c1=O [Compound 106, 2-[3-[(4R)-3-(4-chlorophenyl)-4-phenyl-4,5-dihydro-1H-pyrazol-1-yl]-1-[(4-chlorophenyl)methyl]-5-oxo-4,5-dihydro-1H-1,2,4-triazol-4-yl]acetamide] | 1000 to 5000 nM
C[C@@H](C(N)=O)n1c(N2C[C@@H](c3ccccc3)C(c3ccc(Cl)cc3)=N2)n[nH]c1=O [Compound 209, (2S)-2-[3-[(4R)-3-(4-chlorophenyl)-4-phenyl-4,5-dihydropyrazol-1-yl]-5-oxo-1H-1,2,4-triazol-4-yl]propanamide] | > 5000 nM
C[C@@H](C(=O)NCCO)n1c(N2C[C@@H](c3ccccc3)C(c3ccc(Cl)cc3)=N2)nn(Cc2ccc(Cl)cc2)c1=O [Compound 187, (2S)-2-[3-[(4R)-3-(4-chlorophenyl)-4-phenyl-4,5-dihydropyrazol-1-yl]-1-[(4-chlorophenyl)methyl]-5-oxo-1,2,4-triazol-4-yl]-N-(2-hydroxyethyl)propanamide] | > 5000 nM
NC(=O)Cn1c(N2C[C@]3(CCc4ccccc43)C(c3ccc(Cl)cc3)=N2)nn(Cc2ccc(Cl)cc2)c1=O [Compound 122, 2-[3-[(1R)-3-(4-chlorophenyl)-1,2,3,5-tetrahydrospiro[indene-1,4-pyrazol]-1-yl]-1-[(4-chlorophenyl)methyl]-5-oxo-4,5-dihydro-1H-1,2,4-triazol-4-yl]acetamide] | 100 to 1000 nM
C[C@@H](C(N)=O)n1c(N2C[C@H](c3ccccc3)C(c3ccc(Cl)cc3)=N2)nn(Cc2ccc(Cl)cn2)c1=O [Compound 207] | < 100 nM
Cn1c(N2C[C@H](c3ccccc3)C(c3ccc(Cl)cc3)=N2)nn(Cc2ccccc2)c1=O [Compound 169] | < 100 nM
COCCn1c(N2CC3(CCc4ccccc43)C(c3ccc(Cl)cc3)=N2)nn(Cc2ccc(Cl)cc2)c1=O (stereo in doubt) [Compound 120, 3-[(1R)-3-(4-chlorophenyl)-1,2,3,5-tetrahydrospiro[indene-1,4-pyrazol]-1-yl]-1-[(4-chlorophenyl)methyl]-4-(2-methoxyethyl)-4,5-dihydro-1H-1,2,4-triazol-5-one] | 1000 to 5000 nM
Cn1nc(N2CC(c3ccccc3)C(c3ccc(Cl)cc3)=N2)n(Cc2ccccc2)c1=O (centres unmarked) [Compound 193, 4-benzyl-5-[3-(4-chlorophenyl)-4-phenyl-4,5-dihydropyrazol-1-yl]-2-methyl-1,2,4-triazol-3-one] | 100 to 1000 nM
